Results taken from patent US9868734B2, “Conjugate of benzofuranone and indole or azaindole, and preparation and uses thereof” (Luoda Biosciences, Inc., priority 2013, dated 2018).

Experiments:
[1] = test system: human hepatocellular carcinoma cell line HepG-2; test: MTT assay, inhibition of tumor cell growth (HepG2); assay type: cell-based; settings: 72 hours incubation, read-out: IC50 on the tumor cells HepG2
Procedure: (§1) human hepatocellular carcinoma cell line HepG-2, human lung adenocarcinoma epithelial cell line A549
(§2) Tumor cells were seeded in RPM11640 medium containing 10% calf serum, incubated at 37° C., 5% CO2 in CO2 incubator, and passaged every 2-3 days. Cells at logarithmic growth phase were used for this experiment.
(§3) The cells at logarithmic growth phase were formulated into suspension. The cell viability by trypan blue staining was more than 98%. The cell suspension was divided into several groups: 1 as blank control group (cell suspension plus solvent DMSO); and 2 as experimental groups (cell suspension plus compounds to be tested).
(§4) The drugs were formulated into a stock solution in DMSO, and the concentration of the stock solution was 20 mmol (used within 4 hours). In the experiment, the work solution of the drugs was diluted with RPMI1640 medium containing 10% calf serum under aseptic condition, to a final concentration of […]. The drug concentrations were increased by 2 times (1.25-20 μM).
(§5) The cells in logarithmic growth phase were selected, centrifuged, counted, and formulated into a cell suspension (2.5×10^4/ml) with RPMI1640 medium containing 10% calf serum. The cell suspension were inoculated into 96-well plates at a density of 5000 cells/200 μl per well, incubated for 24 hours at 37° C., 5% CO2. According to the above concentration of the drug, the cells were inoculated to 6 groups (including one control group), with 8 wells per group. After incubating for 72 hours, the viability of cells was measured by MTT assay. The absorbance value (A) was measured with detection wavelength at 540 nm, reference wavelength at 630 nm. The inhibitory rate (I) was calculated by the following equation, where T was the absorbance value of the experimental groups, and C was the absorbance value of the blank control group: I=(1−T/C)×100%
(§6) Equation of regression line was drawn from concentration-inhibitory rate curve, from which the IC50 of tested sample was calculated.

[2] = test system: human lung adenocarcinoma epithelial cell line A549; test: MTT assay, inhibition of tumor cell growth (A549); assay type: cell-based; settings: 72 hours incubation, read-out: IC50 on the tumor cells A549
Procedure: as §1, §2, §3, §4, §5, §6

Compound	IC50 [1] [µM]	IC50 [2] [µM]
O=C1Nc2ccccc2C1=C1Oc2ccccc2C1=O [Compound 1]	> 100	40 ± 1.4
O=C1Nc2c(F)cccc2C1=C1Oc2ccccc2C1=O [Compound 2]		> 100
CCN1C(=O)C(=C2Oc3ccccc3C2=O)c2ccccc21 [Compound 3]	26.4 ± 1.1	21.9 ± 0.9
CCN1C(=O)C(=C2Oc3ccccc3C2=O)c2cc(Cl)ccc21 [Compound 5]	87 ± 2.1	11.5 ± 1
CCN1C(=O)C(=C2Oc3ccccc3C2=O)c2ccc(Cl)cc21 [Compound 6]	60 ± 1.7	11.9 ± 1.4
CC(C)N1C(=O)C(=C2Oc3ccccc3C2=O)c2ccccc21 [Compound 8]	32.2 ± 2.4	10 ± 1.4
CC(C)N1C(=O)C(=C2Oc3ccccc3C2=O)c2cc(F)ccc21 [Compound 9]	25 ± 1	18.5 ± 1.8
CC(C)N1C(=O)C(=C2Oc3ccccc3C2=O)c2ccc(Cl)cc21 [Compound 12]	26 ± 2.7	14 ± 1.7
Cc1ccc2c(c1)C(=C1Oc3ccccc3C1=O)C(=O)N2C(C)C [Compound 13]	42 ± 1.8	11 ± 1.2
O=C1C(=C2C(=O)N(Cc3ccccc3)c3ccc(Cl)cc32)Oc2ccccc21 [Compound 16]	61 ± 2.9	16 ± 2
CCN1C(=O)C(=C2Oc3ccc(Cl)cc3C2=O)c2ccccc21 [Compound 19]	8 ± 1.5	16 ± 1.5
CCN1C(=O)C(=C2Oc3ccc(Cl)cc3C2=O)c2cccc(F)c21 [Compound 20]	12 ± 1.4	1.8 ± 1
CC(C)N1C(=O)C(=C2Oc3ccccc3C2=NO)c2ccccc21 [Compound 32]	12.8 ± 1.6	10.5 ± 1.3
O=C1C(=C2Oc3ccccc3C2=NO)c2ccccc2N1C1OC(CO)C(O)C1O (stereo not drawn) [Compound 33]	21 ± 0.9	14.8 ± 1.2
CC(C)N1C(=O)C(=C2Oc3ccccc3C2=NO)c2cccc(F)c21 [Compound 34]	51.1 ± 2.6	14.1 ± 1.5
CC(C)N1C(=O)C(=C2Oc3ccccc3C2=NO)c2cc(Cl)ccc21 [Compound 35]	29.2 ± 1.4	17.5 ± 1.8
CC(C)N1C(=O)C(=C2Oc3ccccc3C2=NO)c2ccc(Cl)cc21 [Compound 36]	31.5 ± 1.8	10 ± 0.6
O=C1C(=C2Oc3ccccc3C2=NO)c2cc(F)ccc2N1Cc1ccccc1 [Compound 39]	19 ± 2.1	33 ± 2.9
O=C1C(=C2Oc3ccccc3C2=NO)c2cc(Cl)ccc2N1Cc1ccccc1 [Compound 40]	> 100	14 ± 1.2
CCN1C(=O)C(=C2Oc3ccccc3C2=NO)c2cc(F)ccc21 [Compound 42]	28 ± 2.5	15 ± 1.2
CCN1C(=O)C(=C2Oc3ccc(Cl)cc3C2=NO)c2ccccc21 [Compound 43]	42 ± 4.2	14 ± 1.7
CCN1C(=O)C(=C2Oc3ccc(Cl)cc3C2=NO)c2cccc(F)c21 [Compound 44]	> 100	> 100
CON=C1C(=C2C(=O)N(C(C)C)c3cc(Cl)ccc32)Oc2ccccc21 [Compound 54]	1.8 ± 1.9	12 ± 1.4
CON=C1C(=C2C(=O)N(C(C)C)c3ccc(C)cc32)Oc2ccccc21 [Compound 55]	4 ± 2.4	12 ± 1.9
CON=C1C(=C2C(=O)N(Cc3ccccc3)c3ccc(Cl)cc32)Oc2ccccc21 [Compound 58]	3.8 ± 1.5	12.1 ± 0.9
CON=C1C(=C2C(=O)N(C(C)C)c3cc(Cl)ccc32)Oc2ccc(Cl)cc21 [Compound 60]	5.4 ± 0.6	29 ± 1.8
CCN1C(=O)C(=C2Oc3ccccc3C2=O)c2c1ccnc2C [Compound 65]	40 ± 3.1	18.5 ± 1.8
Cc1nccc2c1C(=C1Oc3ccccc3C1=O)C(=O)N2C(C)C [Compound 68]	18.5 ± 1.8	14 ± 1.7

The remaining compounds from weak to strong by IC50 [2], led by results:

IC50 [1] [µM]	IC50 [2] [µM]	Compound
31.5 ± 2.9	9.5 ± 2.1	CCN1C(=O)C(=C2Oc3ccccc3C2=O)c2cccc(F)c21 [Compound 4]
4.8 ± 0.7	9.5 ± 0.6	CON=C1C(=C2C(=O)Nc3ccccc32)Oc2ccccc21 [Compound 49]
11.5 ± 1	9.5 ± 2.1	CN1C(=O)C(=C2Oc3ccccc3C2=O)c2cnccc21 [Compound 62]
32.2 ± 1.5	9.05 ± 1.4	O=C1C(=C2Oc3ccccc3C2=NO)c2ccccc2N1Cc1ccccc1 [Compound 38, N1-benzyl-1′-oxo-indirubin-3′-oxime]
41 ± 1.7	9 ± 2.1	Cc1ccc2c(c1)C(=C1Oc3ccccc3C1=NO)C(=O)N2C(C)C [Compound 37]
45 ± 1.9	8.5 ± 1.6	CC(C)N1C(=O)C(=C2Oc3ccccc3C2=O)c2cc(Cl)ccc21 [Compound 11]
45 ± 3	8.3 ± 1.7	Cc1ccc2c(c1)C(=C1Oc3ccccc3C1=NO)C(=O)N2Cc1ccccc1 [Compound 41]
28.5 ± 1.3	8.1 ± 0.6	CC(C)N1C(=O)C(=C2Oc3ccccc3C2=O)c2cccc(F)c21 [Compound 10]
19 ± 1.6	8 ± 1.2	CCN1C(=O)C(=C2Oc3ccccc3C2=O)c2cc(C)ccc21 [Compound 7]
25 ± 2.7	8 ± 2.3	Cc1ccc2c(c1)C(=C1Oc3ccccc3C1=O)C(=O)N2Cc1ccccc1 [Compound 17]
2.9 ± 0.5	7.7 ± 1.2	CON=C1C(=C2C(=O)Nc3c(F)cccc32)Oc2ccccc21 [Compound 50]
34 ± 0.9	7.4 ± 1.7	O=C1C(=C2C(=O)N(Cc3ccccc3)c3ccc(F)cc32)Oc2ccccc21 [Compound 15]
1.8 ± 0.6	7.4 ± 1.7	CC(C)N1C(=O)C(=C2Oc3ccccc3C2=O)c2cnccc21 [Compound 66]
19 ± 1.1	7.1 ± 0.7	CCN1C(=O)C(=C2Oc3ccccc3C2=NO)c2ccccc21 [Compound 27]
2.7 ± 1.2	7.1 ± 1.1	CON=C1C(=C2C(=O)N(Cc3ccccc3)c3ccccc32)Oc2ccccc21 [Compound 56, N1-benzyl-1′-oxo-indirubin-3′-oxime ether]
17 ± 1.9	7.05 ± 1.1	CCN1C(=O)C(=C2Oc3ccccc3C2=O)c2cc(F)ccc21 [Compound 18]
24 ± 1.5	7 ± 1.6	O=C1C(=C2C(=O)N(Cc3ccccc3)c3ccccc32)Oc2ccccc21 [Compound 14, N1-benzyl-1′-oxo-indirubin]
30 ± 1.5	7 ± 1.3	CCN1C(=O)C(=C2Oc3ccccc3C2=NO)c2cccc(F)c21 [Compound 28]
3.1 ± 0.8	6.9 ± 0.8	CON=C1C(=C2C(=O)N(Cc3ccccc3)c3ccc(F)cc32)Oc2ccccc21 [Compound 57]

IC50 [1] [µM]	IC50 [2] [µM]	Compound
29 ± 1.8	5.4 ± 0.6	O=C1Nc2c(F)cccc2C1=C1Oc2ccccc2C1=NO [Compound 26]
3.7 ± 0.9	5 ± 0.9	CCN1C(=O)C(=C2Oc3ccccc3C2=NOC)c2cc(F)ccc21 [Compound 59]
3.6 ± 0.2	4.8 ± 0.6	CCN1C(=O)C(=C2Oc3ccc(Cl)cc3C2=NO)c2cc(Cl)ccc21 [Compound 45]
3.6 ± 0.4	4.5 ± 0.6	CCCCN1C(=O)C(=C2Oc3ccccc3C2=O)c2cncc(F)c21 [Compound 70]
12 ± 1.9	4 ± 2.4	CCN1C(=O)C(=C2Oc3ccc(Cl)cc3C2=O)c2cc(Cl)ccc21 [Compound 21]
1.7 ± 0.6	3.9 ± 0.5	CCN1C(=O)C(=C2Oc3ccccc3C2=NOC)c2ccccc21 [Compound 51]
12.1 ± 0.9	3.8 ± 1.5	CC(C)N1C(=O)C(=C2Oc3ccc(Cl)cc3C2=O)c2ccc(Cl)cc21 [Compound 24]
3 ± 0.5	3.8 ± 0.5	CCN1C(=O)C(=C2Oc3ccccc3C2=NO)c2ccc(Cl)cc21 [Compound 30]
5 ± 0.9	3.7 ± 0.9	O=C1Nc2ccccc2C1=C1Oc2ccccc2C1=NO [Compound 25]
7.7 ± 1.2	3.6 ± 0.2	CCN1C(=O)C(=C2Oc3ccccc3C2=NO)c2cc(Cl)ccc21 [Compound 29]
3.8 ± 0.5	3.4 ± 0.7	CCN1C(=O)C(=C2Oc3ccc(Cl)cc3C2=NO)c2ccc(Cl)cc21 [Compound 46]
6.9 ± 0.8	3.1 ± 0.8	CC(C)N1C(=O)C(=C2Oc3ccc(Cl)cc3C2=O)c2cc(Cl)ccc21 [Compound 23]
2.1 ± 0.2	2.8 ± 0.4	CCN1C(=O)C(=C2Oc3ccccc3C2=NOC)c2cccc(F)c21 [Compound 52]
7.1 ± 1.1	2.7 ± 1.2	CCN1C(=O)C(=C2Oc3ccc(Cl)cc3C2=O)c2ccc(Cl)cc21 [Compound 22]
16 ± 1.5	2.1 ± 0.5	CON=C1C(=C2C(=O)N(C3OC(CO)C(O)C(O)C3O)c3ccc(Cl)cc32)Oc2ccccc21 (stereo not drawn) [Compound 53]
2.6 ± 0.4	1.9 ± 0.4	CC(C)N1C(=O)C(=C2Oc3ccc(Cl)cc3C2=NO)c2ccc(Cl)cc21 [Compound 48]
1.6 ± 0.8	1.7 ± 0.8	CC(C)N1C(=O)C(=C2Oc3ccccc3C2=NO)c2cc(Cl)ccc21 [Compound 47]
2.8 ± 0.4	1.2 ± 0.8	CCN1C(=O)C(=C2Oc3ccccc3C2=NO)c2cc(C)ccc21 [Compound 31]
